{"source": "patent US4863946A", "about": "“2-[2H-(1,3-dihydroisoindole)alkylene]-4,5-dihydroimidazoles and pharmaceutical compositions thereof” (Beecham Group plc, priority 1985, dated 1989)", "biological_target": "T1, α2-Adrenoceptor (Homo sapiens, UniProt P08913)", "T1 construct": "from tissue; host or cells: human platelets (membranes)", "T1 sequence (P08913 1-465)": "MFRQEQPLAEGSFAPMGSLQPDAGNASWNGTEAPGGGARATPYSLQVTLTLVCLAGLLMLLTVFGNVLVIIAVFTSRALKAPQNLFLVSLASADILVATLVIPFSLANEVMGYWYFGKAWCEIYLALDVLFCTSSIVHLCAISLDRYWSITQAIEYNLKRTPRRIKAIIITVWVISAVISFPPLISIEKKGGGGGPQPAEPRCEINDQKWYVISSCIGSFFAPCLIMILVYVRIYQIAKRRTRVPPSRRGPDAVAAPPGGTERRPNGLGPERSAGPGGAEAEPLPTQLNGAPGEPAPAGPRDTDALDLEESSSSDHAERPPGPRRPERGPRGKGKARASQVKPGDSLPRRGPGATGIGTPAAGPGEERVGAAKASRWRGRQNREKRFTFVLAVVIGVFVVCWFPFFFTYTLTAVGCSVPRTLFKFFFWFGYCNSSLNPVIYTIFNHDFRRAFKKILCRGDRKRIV", "experiment": "α2-Adrenoceptor Binding ([3H] Rauwolscine, human platelet membranes)", "details": "[3H] Rauwolscine 0.5-1.0 nM, 30 minutes at 30° C., read-out: Binding Affinity. Ki", "method": "(A) α2-Adrenoceptor Binding\nHuman platelet membranes were incubated with [^3 H] Rauwolscine (0.5-1.0 nM) for 30 minutes at 30° C. with varying concentrates of the drug (0.1-10,000 nM). The binding assay was stopped by filtering and rinsing on GF/B glass fibre filters. Binding Affinity (Ki) was calculated using the Ching Prussoff equation.", "note": "Where a name gives a salt, the structure may show the parent alone."}
{"smiles": "c1ccc2c(c1)CN(CC1=NCCN1)C2", "note": "[Example 1, 2-[2H-(1,3-Dihydroisoindole)methyl]-4,5-dihydroimidazole]", "values": [{"measurement": "Ki", "value": 5, "unit": "nM"}]}
{"smiles": "Clc1cccc2c1CN(CC1=NCCN1)C2", "note": "[Example 2, 2-[2H-(4-Chloro-1,3-dihydroisoindole)methyl]-4,5-dihydroimidazole]", "values": [{"measurement": "Ki", "value": 7, "unit": "nM"}]}
{"smiles": "Clc1ccc2c(c1)CN(CC1=NCCN1)C2", "note": "[Example 3, 2-[2H-(5-Chloro-1,3-dihydroisoindole)methyl]-4,5-dihydroimidazole]", "values": [{"measurement": "Ki", "value": 13, "unit": "nM"}]}
{"smiles": "c1ccc2c(c1)CCN(CC1=NCCN1)C2", "note": "[Example 4, 2-[(1,2,3,4-Tetrahydroisoquinoline)methyl]-4,5-dihydroimidazole]", "values": [{"measurement": "Ki", "value": 20, "unit": "nM"}]}
{"smiles": "Fc1ccc2c(c1)CN(CC1=NCCN1)C2", "note": "[Example 5, 2-[2H-(5-Fluoro-1,3-dihydroisoindole)methyl]-4,5-dihydroimidazole]", "values": [{"measurement": "Ki", "value": 164, "unit": "nM"}]}
{"smiles": "COc1ccc2c(c1)CN(CC1=NCCN1)C2", "note": "[Example 6, 2-[2H-(5-Methoxy-1,3-dihydroisoindole)methyl]-4,5 dihydroimidazole dihydrochloride]", "values": [{"measurement": "Ki", "value": 89, "unit": "nM"}]}
{"smiles": "Cc1ccc2c(c1)CN(CC1=NCCN1)C2", "note": "[Example 7, 2-[2H-(5-Methyl-1,3-dihydroisoindole)methyl]-4,5-dihydroimidazole]", "values": [{"measurement": "Ki", "value": 22, "unit": "nM"}]}
